# Measurements as given in PMC5037861 (BMC Research Notes, 2016).
# Experiments:
# endogenous B2R [1] = biological target: T1, endogenous B2R (Homo sapiens, UniProt P30411); parameters: The human umbilical vein is a contractile bioassay for the endogenous B2R; from tissue; host or cells: human isolated umbilical vein (A2); settings: cited from earlier work; for pA2: antagonism of BK-induced contraction
# T1 sequence (P30411 1-391): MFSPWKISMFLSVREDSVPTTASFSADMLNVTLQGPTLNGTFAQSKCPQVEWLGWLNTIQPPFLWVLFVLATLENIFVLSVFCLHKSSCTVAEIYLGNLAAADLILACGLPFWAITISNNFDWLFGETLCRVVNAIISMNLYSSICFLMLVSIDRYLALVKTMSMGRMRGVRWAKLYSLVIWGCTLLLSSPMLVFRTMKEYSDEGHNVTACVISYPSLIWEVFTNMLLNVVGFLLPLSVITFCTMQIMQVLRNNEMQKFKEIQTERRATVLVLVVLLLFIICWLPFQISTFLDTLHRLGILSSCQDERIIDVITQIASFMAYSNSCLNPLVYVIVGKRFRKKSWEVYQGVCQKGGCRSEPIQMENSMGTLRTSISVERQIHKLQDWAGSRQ
# human B2R [2] = biological target: T2, human B2R (Homo sapiens, UniProt P30411); assay: Competition of [3H]BK (3 nM) binding to HEK 293a cells stably expressing myc-tagged human B2R; settings: from binding competition IC50 values
# T2 construct: expressed in transfected cells; host or cells: HEK 293a
# T2 sequence (P30411 1-391): T1 sequence (P30411 1-391)
# Description: Values are the means ± SEM. of the number of duplicate determinations indicated by n. Average specific binding without competitor (100 %) averaged 133.8 fmol/well.
# [3] = test system: T3, β2-adrenoceptor-GFP Topaz fusion protein; assay: Confocal microscopy of HEK 293 cells transiently expressing β2-adrenoceptor-GFP Topaz (specificity control); assay type: cell-based; settings: for labeling of cells expressing β2-adrenoceptor-GFP Topaz: B-10665 10 nM, B-10666 100 nM, 30 min; for β2-adrenoceptor-GFP endocytosis: isoproterenol 100 nM 30 min, propranolol 1 μM pretreatment
# T3 construct: expressed in transfected cells; host or cells: HEK 293 (transient, polyethylenimine); vector a gift from Prof; Michel Bouvier
# rabbit B2R-GFP = test system: T4, rabbit B2R-GFP; assay: Confocal microscopy of HEK 293 cells stably expressing B2R-GFP; assay type: cell-based; settings: for infrared labeling of cells: followed by rinsing
# T4 construct: expressed in transfected cells; host or cells: HEK 293
# endogenous B2R [4] = biological target: T1, endogenous B2R; assay: IVIS infrared fluorescence imaging of slices of human umbilical cord; parameters: The human umbilical vein is a contractile bioassay for the endogenous B2R; from tissue; host or cells: human isolated umbilical vein (A2); slices of human umbilical cord (A8); settings: up to 250 nM, data not shown
# human B2R [5] = biological target: T2, human B2R; assay: IVIS infrared fluorescence imaging of cell wells, HEK 293a cells expressing human myc-B2R; assay type: cell-based; settings: 1–10 nM, 30 min, 37 °C
# Description: (§1) The apparatus was set in fluorescence mode with filters at 675 nm (excitation) and 831 nm (emission), medium binning and 60 s exposure time. This experiment exploited HEK 293a cells grown in 24-well plates that stably expressed either human or rat B2R sequences N-terminally tagged with the myc epitope. Expression of these receptors as a function of pharmacologic treatment was controlled in separate plates of cells that were not fixed or permeabilized using the binding of anti-myc monoclonal antibody (clone 4A6, Millipore, dilution 1:1000) added along goat horseradish peroxidase-conjugated anti-mouse IgG antibodies (Santa Cruz, dilution 1:1000). […] The resulting blue precipitate was photographed at the macroscopic scale.
# human myc-tagged B2Rs = test system: T5, human myc-tagged B2Rs; assay: Cytofluorometry of detached HEK 293a cells stably expressing human myc-tagged B2Rs; assay type: cell-based
# T5 construct: expressed in transfected cells; host or cells: HEK 293a
# Procedure: A subclone of HEK 293 cells, called HEK 293a, originally obtained from Sigma-Aldrich was used in these experiments, either as a non-transfected cell type or as one stably expressing myc-tagged human B2Rs. These cells were grown in Dulbecco’s modified Eagle’s medium supplemented with 10 % fetal bovine serum, 1 % L-glutamine, and 1 % penicillin–streptomycin stock solutions (100×). Cells were detached using the protease-free Cell Dissociation Buffer (Invitrogen), incubated in D-MEM without serum at 37 °C for 30 min under agitation in the presence of a Cy7-conjugated ligands and other drugs, rapidly centrifuged (30 s, 11,000g) and resuspended in phosphate buffered saline. Then, the fluorescence of the cell suspensions was assessed using the BD SORP LSR II cell analyzer for the uptake of the as a function of stimulation and transgene expression. The cytofluorometry results were analyzed using the BD FACS DIVA software.
# rat B2R = test system: T6, rat B2R; assay: IVIS infrared fluorescence imaging of cell wells, HEK 293a cells expressing rat myc-B2R; assay type: cell-based; settings: 1–10 nM, 30 min, 37 °C
# T6 construct: expressed in transfected cells; host or cells: HEK 293a
# Description: as §1
# endogenous B2R [6] = biological target: T1, endogenous B2R; assay: Human isolated umbilical vein contractility assay; parameters: The human umbilical vein is a contractile bioassay for the endogenous B2R; from tissue; host or cells: human isolated umbilical vein (A2); slices of human umbilical cord (A8); settings: agonist contraction; based on an extrapolated concentration-effect curve
# Procedure: Local ethics review boards approved the anonymous use of segments of human umbilical cords obtained following elective cesarean sections; informed consent was obtained from the mothers. Novel Cy-7 conjugated B2R ligands were assayed via the contraction of the human isolated umbilical vein [9, 10]. Cumulative concentration effect curves were constructed for the agonist version and its potency compared to that of BK. […] Results are presented as mean ± SEM. Radioligand binding data were fitted by nonlinear regression to a one-site competition equation using a least-square method (Prism 5.0, GraphPad Software Inc., San Diego, CA, USA) and IC50 values with their 95 % confidence limits were calculated from this procedure. The same computer program was used to draw concentration-effect curves (least square fitting of sigmoidal dose–response equation with variable slope) and to derive contractile EC50 values.
compound,measurement,setting,value
"N=C(N)NCCC[C@@H](N)C(=O)N[C@@H](CCCNC(=N)N)C(=O)N1CCC[C@H]1C(=O)N1C[C@H](O)C[C@H]1C(=O)NCC(=O)N[C@H](C(=O)N[C@@H](CO)C(=O)N[C@@H](C(=O)N1[C@H](C(=O)N[C@@H](CCCNC(=N)N)C(=O)O)C[C@@H]2CCCC[C@@H]21)C1Cc2ccccc2C1)C1Cc2ccccc2C1 [Peptide B-9430, D-Arg-[Hyp^3,Igl^5,D-Igl^7,Oic^8]-BK]",pA2,endogenous B2R [1],7.7
"N=C(N)NCCC[C@@H](N)C(=O)N[C@@H](CCCNC(=N)N)C(=O)N1CCC[C@H]1C(=O)N1C[C@H](O)C[C@H]1C(=O)NCC(=O)N[C@H](C(=O)N[C@@H](CO)C(=O)N1[C@H](C(=O)N[C@H](C(=O)N[C@@H](CCCNC(=N)N)C(=O)O)C2Cc3ccccc3C2)C[C@@H]2CCCC[C@@H]21)C1Cc2ccccc2C1 [Peptide B-9972, D-Arg-[Hyp^3,Igl^5,Oic^7,Igl^8]-BK, reference compound]",loss of affinity vs. parent peptide,human B2R [2],~ twofold
"CN1C(=CC=C2C=C(C=CC3=[N+](CCCCCC(=O)N[C@H](CCCNC(=N)N)C(=O)N[C@@H](CCCNC(=N)N)C(=O)N4CCC[C@H]4C(=O)N4C[C@H](O)C[C@H]4C(=O)NCC(=O)N[C@H](C(=O)N[C@@H](CO)C(=O)N[C@@H](C(=O)N4[C@H](C(=O)N[C@@H](CCCNC(=N)N)C(=O)O)C[C@@H]5CCCC[C@@H]54)C4Cc5ccccc5C4)C4Cc5ccccc5C4)c4ccccc4C3(C)C)CCC2)C(C)(C)c2ccccc21 [Peptide B-10665, Cy7-B-9430]",labeling of cells expressing β2-adrenoceptor-GFP Topaz,[3],Lack of labeling
same,infrared labeling of cells,"rabbit B2R-GFP; 30 min, 37 °C",labelled essentially plasma membranes in the infrared if and only if B2R-GFP was expressed
same,detection of endogenous B2R,endogenous B2R [4],could not detect endogenous B2R presence
same,infrared staining of cell wells,human B2R [5],stained the cell wells (from a 24-well plate) in a concentration-dependent manner
same,binding detected by infrared fluorescence (cell labeling),"human myc-tagged B2Rs; 30 min, 37 °C, detached intact cells",specific binding that plateaued in the low nanomolar range
same,loss of affinity vs. parent peptide,human B2R [2],about equipotent to its parent peptide
same,infrared staining of cell wells,rat B2R,more so for the rat construction
"CN1C(=CC=C2C=C(C=CC3=[N+](CCCCCC(=O)N[C@H](CCCNC(=N)N)C(=O)N[C@@H](CCCNC(=N)N)C(=O)N4CCC[C@H]4C(=O)N4C[C@H](O)C[C@H]4C(=O)NCC(=O)N[C@H](C(=O)N[C@@H](CO)C(=O)N4[C@H](C(=O)N[C@H](C(=O)N[C@@H](CCCNC(=N)N)C(=O)O)C5Cc6ccccc6C5)C[C@@H]5CCCC[C@@H]54)C4Cc5ccccc5C4)c4ccccc4C3(C)C)CCC2)C(C)(C)c2ccccc21 [Peptide B-10666, Cy7-B-9972]",labeling of cells expressing β2-adrenoceptor-GFP Topaz,[3],Lack of labeling
same,infrared labeling of cells,"rabbit B2R-GFP; 30 min, 37 °C",did not label untransfected cells or icatibant-pretreated receptor-expressing cells
same,endocytosis of B2R-GFP,"rabbit B2R-GFP; 30 min, 37 °C, live cells",determined the endocytosis of a fraction of the plasma membrane receptors
same,loss of potency vs. BK,endogenous B2R [6],4240 fold
same,loss of affinity vs. parent peptide,human B2R [2],~ 35 fold
"CC(C)NCC(O)c1ccc(O)c(O)c1 (centres unmarked) [isoproterenol, reference compound]",β2-adrenoceptor-GFP endocytosis,[3],the receptors are then translocated into endosomes
"CC(C)NCC(O)COc1cccc2ccccc12 (centres unmarked) [propranolol, reference compound]",β2-adrenoceptor-GFP endocytosis,[3],agonist-induced endocytosis was prevented
FTC-B-9430,pA2,endogenous B2R [1],6.96
fluorescein-5-thiocarbamoyl (FTC)-B-9972 [FTC-B-9972],EC50,endogenous B2R [1]; contraction,108 nM
icatibant [reference compound],prevention of B-10665 (10 nM) plasma membrane fluorescence,rabbit B2R-GFP; pretreatment of B2R-GFP-expressing cells,prevented
same,competition of B-10665 binding,human myc-tagged B2Rs; icatibant applied 15 min before B-10665,extensive competition
